Measurements reported in PubChem BioAssay (NCI).
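Values below derive from 48-hour exposures of cells grown in 96-well plates, with endpoints linearly interpolated between the two concentrations bracketing the appropriate inhibition level. At the GI50, growth is halved. TGI is the concentration that stops growth completely.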

Columns and labels:
Experiment in all cases: DTP human tumour cell line panel, 48 h
HCC-2998 colon = test system: HCC-2998 colon
HCT-116 colon = test system: HCT-116 colon
HL-60(TB) leukemia = test system: HL-60(TB) leukemia
HOP-62 NSCLC = test system: HOP-62 NSCLC
K-562 leukemia = test system: K-562 leukemia
MALME-3M melanoma = test system: MALME-3M melanoma
MDA-N = test system: MDA-N
OVCAR-4 ovarian = test system: OVCAR-4 ovarian
OVCAR-8 ovarian = test system: OVCAR-8 ovarian
SNB-19 CNS = test system: SNB-19 CNS
SW-620 colon = test system: SW-620 colon
T-47D breast = test system: T-47D breast
UACC-62 melanoma = test system: UACC-62 melanoma
UO-31 renal = test system: UO-31 renal
BT-549 breast = test system: BT-549 breast
KM12 colon = test system: KM12 colon
NCI-H23 lung = test system: NCI-H23 lung

| SMILES | TGI (HCC-2998 colon) [µM] | TGI (HCT-116 colon) [µM] | TGI (HL-60(TB) leukemia) [µM] | TGI (HOP-62 NSCLC) [µM] | TGI (K-562 leukemia) [µM] | TGI (MALME-3M melanoma) [µM] | TGI (MDA-N) [µM] | TGI (OVCAR-4 ovarian) [µM] | TGI (OVCAR-8 ovarian) [µM] | TGI (SNB-19 CNS) [µM] | TGI (SW-620 colon) [µM] | TGI (T-47D breast) [µM] | TGI (UACC-62 melanoma) [µM] | TGI (UO-31 renal) [µM] | TGI (BT-549 breast) [µM] | TGI (KM12 colon) [µM] | TGI (NCI-H23 lung) [µM] | GI50 (HCT-116 colon) [µM] | GI50 (HOP-62 NSCLC) [µM] | GI50 (UACC-62 melanoma) [µM] |
| --- | --- | --- | --- | --- | --- | --- | --- | --- | --- | --- | --- | --- | --- | --- | --- | --- | --- | --- | --- | --- |
| CC(=O)c1ccc(N2CCN(c3c(O)c4c(c(O)c3Cl)C(=O)C=CC4=O)CC2)cc1 | 37.4 | 11.9 | 0.871 | 21 | 7.1 | 23.5 | 10.8 | 10.8 | 23 | 35.7 | 12.7 | 10.4 | 7.37 | 22.9 | – | – | – | – | – | – |
| NC(=O)NC(CC(=O)O)C(=O)O (configuration not stated) | > 100 | > 100 | – | > 100 | > 100 | > 100 | > 100 | > 100 | > 100 | > 100 | > 100 | > 100 | > 100 | > 100 | > 100 | > 100 | > 100 | – | – | – |
| C=CC1(c2ccc3ccccc3c2)OCC(CC)(CC)CO1 | 37.3 | 43.2 | 41.4 | 84.4 | 48.1 | 49.1 | 65.8 | > 100 | > 100 | 36.3 | 43.4 | 52.2 | 46 | 86.1 | – | 40.6 | 49.3 | – | – | – |
| CCCCCCNC(=O)c1cc(C#Cc2cc(OC)ccc2OC)ccc1OC | 6.25 | > 100 | – | > 100 | > 100 | – | > 100 | > 100 | > 100 | > 100 | > 100 | 11 | > 100 | > 100 | > 100 | > 100 | > 100 | 6.9 | 11.8 | 56.8 |
| C=C[C@@]1(C)CC2CC[C@]3(C)C(C)=CC(=O)CC3[C@]2(C)CC1O (some centres not stated) | > 100 | > 100 | 82 | > 100 | > 100 | > 100 | – | > 100 | – | > 100 | > 100 | > 100 | > 100 | > 100 | – | > 100 | > 100 | – | – | – |
| CC(=O)OCc1cccc(O)c1C(=O)CCC=C(C)C | > 100 | > 100 | > 100 | > 100 | > 100 | > 100 | > 100 | > 100 | – | > 100 | > 100 | > 100 | > 100 | > 100 | – | > 100 | > 100 | – | – | – |
| CC1=C2C(=O)C3[C@@H](CCC4=CC(=O)CC[C@@]43C)C2CC[C@]12O[C@@H]1C[C@H](C)CN[C@H]1[C@H]2C (some centres not stated) | > 100 | > 100 | 28.2 | 68.2 | 36.4 | – | – | > 100 | > 100 | > 100 | > 100 | – | 61 | > 100 | – | > 100 | > 100 | – | – | – |
| Cn1c(=O)cc(NNc2ccc(Br)cc2)[nH]c1=O | 13.9 | 29.3 | 7.14 | 29.5 | > 100 | 31.4 | 28.6 | 30.3 | 41.4 | 26.5 | 15.6 | – | – | 30 | 30.6 | 10.4 | – | – | – | – |
| CN(C)C1(C(=O)O)CC1 | > 100 | > 100 | > 100 | > 100 | > 100 | > 100 | > 100 | > 100 | > 100 | > 100 | > 100 | > 100 | – | – | – | – | > 100 | – | – | – |
| Nc1ccc2cc(S(=O)(=O)O)cc(O)c2c1N=Nc1ccc(NC(=O)Nc2ccc(N=Nc3c(N)ccc4cc(S(=O)(=O)O)cc(O)c34)c(S(=O)(=O)O)c2)cc1S(=O)(=O)O | > 100 | > 100 | > 100 | > 100 | > 100 | > 100 | – | > 100 | > 100 | – | > 100 | – | > 100 | > 100 | – | > 100 | > 100 | – | – | – |
| O=C(N1CCOCC1)C1(c2ccccc2)CCNCC1 | – | > 100 | – | > 100 | > 100 | > 100 | > 100 | > 100 | > 100 | > 100 | > 100 | > 100 | > 100 | > 100 | > 100 | > 100 | > 100 | – | – | – |
| CC1(C)N(OC2CCCCO2)C(c2ccccc2)C(c2ccccc2)=[N+]1[O-] (configuration not stated) | > 100 | > 100 | > 100 | > 100 | > 100 | > 100 | > 100 | > 100 | > 100 | > 100 | > 100 | – | > 100 | > 100 | > 100 | > 100 | > 100 | – | – | – |
| COc1ccc(C(=O)/C=C2\c3ccccc3C(=O)N2C)cc1 | – | > 100 | – | > 100 | > 100 | > 100 | > 100 | > 100 | > 100 | > 100 | > 100 | > 100 | > 100 | > 100 | > 100 | > 100 | > 100 | – | – | – |
| C=C1C(=O)OC2C[C@H](C)C3CC(=O)C(C)=C3CC12 (some centres not stated) | 29.2 | 20.4 | 8.42 | > 54.4 | 23.1 | 25.3 | – | 30.3 | 39.3 | > 100 | 18.7 | – | 25.9 | 26 | – | 33.3 | 28.7 | – | – | – |
| NCCCCC(N)C(=O)N1CCN(c2nc(N3CCCC3)c3nc(Cl)c(NCc4ccccc4)nc3n2)CC1 (configuration not stated) | 34.7 | 32.1 | 36.1 | 29.3 | 47.2 | 43.5 | 33.7 | 50.8 | 31.5 | 33.2 | 47.7 | – | 36.7 | 32.9 | 34.4 | 47.2 | 37.9 | – | – | – |
